Experimental data reported in article PMC9454393 (Scientific Reports, 2022).
Where two headings read alike, the source gives them in different places.

Experiments:
[1] = target: T1, AChE (Homo sapiens, UniProt P22303); experiment: biochemical; conditions: mean ± SD
Description: (§1) A previously described modified protocol of Ellman's spectrophotometric assay in clear flat-bottomed, 96-well plates, was used. […] The absorbance of each well was measured at 415 nm using a microplate reader. […]

[2] = target: BChE (Homo sapiens, UniProt P06276); experiment: BChE inhibition, modified Ellman's spectrophotometric assay; type: biochemical; conditions: mean ± SD
Sequence of BChE (P06276 29-602): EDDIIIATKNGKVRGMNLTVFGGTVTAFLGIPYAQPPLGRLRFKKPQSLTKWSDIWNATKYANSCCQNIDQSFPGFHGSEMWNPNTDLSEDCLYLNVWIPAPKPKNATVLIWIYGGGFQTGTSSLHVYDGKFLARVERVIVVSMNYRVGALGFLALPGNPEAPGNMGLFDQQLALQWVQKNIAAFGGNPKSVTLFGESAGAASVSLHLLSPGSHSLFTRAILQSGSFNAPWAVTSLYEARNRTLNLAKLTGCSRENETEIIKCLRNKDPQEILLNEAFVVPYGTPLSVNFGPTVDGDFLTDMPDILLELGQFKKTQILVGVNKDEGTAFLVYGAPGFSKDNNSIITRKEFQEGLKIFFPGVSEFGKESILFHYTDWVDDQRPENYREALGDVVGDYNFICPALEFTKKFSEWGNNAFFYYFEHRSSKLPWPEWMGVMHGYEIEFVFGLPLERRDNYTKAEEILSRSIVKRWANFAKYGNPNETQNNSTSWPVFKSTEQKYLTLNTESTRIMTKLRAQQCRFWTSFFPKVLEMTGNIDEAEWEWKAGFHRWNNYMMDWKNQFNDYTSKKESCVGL
Description: as §1

[3] = target: T1, AChE; conditions: cited from earlier work
[4] = 50 µM compound, NA = not active

T1 sequence (P22303 32-614): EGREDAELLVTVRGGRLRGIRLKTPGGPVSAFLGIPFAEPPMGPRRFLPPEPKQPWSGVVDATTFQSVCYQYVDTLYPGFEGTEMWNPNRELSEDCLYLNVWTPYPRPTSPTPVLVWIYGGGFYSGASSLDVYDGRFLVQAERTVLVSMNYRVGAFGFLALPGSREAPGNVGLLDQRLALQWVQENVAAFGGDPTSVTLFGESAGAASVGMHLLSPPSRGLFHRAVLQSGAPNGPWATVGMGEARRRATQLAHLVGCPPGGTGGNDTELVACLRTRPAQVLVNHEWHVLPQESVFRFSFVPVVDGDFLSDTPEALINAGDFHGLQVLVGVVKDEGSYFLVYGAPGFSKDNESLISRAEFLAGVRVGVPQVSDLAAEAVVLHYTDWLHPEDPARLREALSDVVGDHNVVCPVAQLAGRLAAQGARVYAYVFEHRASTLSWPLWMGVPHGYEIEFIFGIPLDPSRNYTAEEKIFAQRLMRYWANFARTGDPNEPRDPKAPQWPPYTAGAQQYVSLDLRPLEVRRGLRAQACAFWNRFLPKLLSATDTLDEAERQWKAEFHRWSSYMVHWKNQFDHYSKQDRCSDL

Molecule | inhibition at 50 µM [1, 4] | inhibition at 50 µM [2, 4] | also measured
Cc1ccc(-c2c(C(C#N)C(N)=O)c([N+](=O)[O-])c3n2CCCN3)cc1 (stereo not shown) [Compound 4a, 2-cyano-2-(8-nitro-6-(p-tolyl)-1,2,3,4-tetrahydropyrrolo[1,2-a]pyrimidin-7-yl)acetamide] | 14.7 ± 2.26% | 26.1 ± 4.09% | –
COc1ccc(-n2c(SC)c([N+](=O)[O-])c(C(C#N)C(N)=O)c2-c2ccc(Cl)cc2)cc1 (stereo not shown) [Compound 4aa, 2-(2-(4-chlorophenyl)-1-(4-methoxyphenyl)-5-(methylthio)-4-nitro-1H-pyrrol-3-yl)-2-cyanoacetamide] | 48.6 ± 2.77% | 22.3 ± 3.91% | IC50 [1]: 54.6 ± 5.71 µM
CCOC(=O)C(C(N)=O)c1c([N+](=O)[O-])c(SC)n(-c2ccc(OC)cc2)c1-c1ccc(Cl)cc1 (stereo not shown) [Compound 4ac, Ethyl 3-amino-2-(2-(4-chlorophenyl)-1-(4-methoxyphenyl)-5-(methylthio)-4-nitro-1H-pyrrol-3-yl)-3-oxopropanoate] | 11.8 ± 3.92% | 33.8 ± 4.84% | –
CSc1c([N+](=O)[O-])c(C(C#N)C(N)=O)c(-c2ccc(C)cc2)n1-c1ccc(O)cc1 (stereo not shown) [Compound 4ae, 2-cyano-2-(1-(4-hydroxyphenyl)-5-(methylthio)-4-nitro-2-(p-tolyl)-1H-pyrrol-3-yl)acetamide] | 52.4 ± 5.07% | 17.1 ± 3.49% | IC50 [1]: 33.1 ± 3.11 µM
COC(=O)C(C(N)=O)c1c([N+](=O)[O-])c(SC)n(-c2ccc(C)cc2)c1-c1ccccc1 (stereo not shown) [Compound 4af, Methyl 3-amino-2-(5-(methylthio)-4-nitro-2-phenyl-1-(p-tolyl)-1H-pyrrol-3-yl)-3-oxopropanoate] | 24 ± 4.6% | – | –
CSc1c([N+](=O)[O-])c(C(C#N)C(N)=O)c(-c2ccc(C)cc2)n1-c1ccc(C)cc1 (stereo not shown) [Compound 4ag, 2-cyano-2-(5-(methylthio)-4-nitro-1,2-di-p-tolyl-1H-pyrrol-3-yl)acetamide] | 33.3 ± 2.31% | – | –
CSc1c([N+](=O)[O-])c(C(C#N)C(N)=O)c(-c2ccc(Cl)cc2)n1-c1ccc(C)cc1 (stereo not shown) [Compound 4ah, 2-(2-(4-chlorophenyl)-5-(methylthio)-4-nitro-1-(p-tolyl)-1H-pyrrol-3-yl)-2-cyanoacetamide] | 72.5 ± 3.05% | – | IC50 [1]: 4.78 ± 1.63 µM
CCOC(=O)C(C(N)=O)c1c([N+](=O)[O-])c(SC)n(-c2ccc(C)cc2)c1-c1ccccc1 (stereo not shown) [Compound 4ai, Ethyl3-amino-2-(5-(methylthio)-4-nitro-2-phenyl-1-(p-tolyl)-1H-pyrrol-3-yl)-3-oxopropanoate] | 24.2 ± 2.23% | – | –
COC(=O)C(C(N)=O)c1c([N+](=O)[O-])c(SC)n(-c2ccc(C)c(C)c2)c1-c1ccccc1 (stereo not shown) [Compound 4aj, Methyl3-amino-2-(1-(3,4-dimethylphenyl)-5-(methylthio)-4-nitro-2-phenyl-1H-pyrrol-3-yl)-3-oxopropanoate] | 38.9 ± 5.99% | – | –
CC1(C)CNc2c([N+](=O)[O-])c(C(C#N)C(N)=O)c(-c3ccccc3)n2C1 (stereo not shown) [Compound 4b, 2-cyano-2-(3,3-dimethyl-8-nitro-6-phenyl-1,2,3,4-tetrahydropyrrolo[1,2-a]pyrimidin-7-yl)acetamide] | 52 ± 4.43% | – | IC50 [1]: 37.1 ± 3.52 µM
N#CC(C(N)=O)c1c([N+](=O)[O-])c2n(c1-c1ccccc1)CCCN2 (stereo not shown) [Compound 4c, 2-cyano-2-(8-nitro-6-phenyl-1,2,3,4-tetrahydropyrrolo[1,2-a]pyrimidin-7-yl)acetamide] | 39.8 ± 3.69% | – | –
CCOC(=O)C(C(N)=O)c1c([N+](=O)[O-])c2n(c1-c1ccccc1)CC(C)(C)CN2 (stereo not shown) [Compound 4d, Ethyl3-amino-2-(3,3-dimethyl-8-nitro-6-phenyl-1,2,3,4-tetrahydropyrrolo[1,2-a]pyrimidin-7-yl)-3-oxopropanoate] | 13.5 ± 1.58% | 13.5 ± 2.96% | –
CC1(C)CNc2c([N+](=O)[O-])c(C(C#N)C(N)=O)c(-c3ccc(Cl)cc3)n2C1 (stereo not shown) [Compound 4e, 2-(6-(4-chlorophenyl)-3,3-dimethyl-8-nitro-1,2,3,4-tetrahydropyrrolo[1,2-a]pyrimidin-7-yl)-2-cyanoacetamide] | 57 ± 5.46% | 18.1 ± 2.89% | IC50 [1]: 36.3 ± 4.85 µM
COc1cccc(-c2c(C(C#N)C(N)=O)c([N+](=O)[O-])c3n2CCCN3)c1 (stereo not shown) [Compound 4f, 2-cyano-2-(6-(3-methoxyphenyl)-8-nitro-1,2,3,4-tetrahydropyrrolo[1,2-a]pyrimidin-7-yl)acetamide] | 33.5 ± 5.19% | 17.8 ± 2.79% | –
CCOC(=O)C(C(N)=O)c1c([N+](=O)[O-])c2n(c1-c1ccccc1)CCCN2 (stereo not shown) [Compound 4g, Ethyl 3-amino-2-(8-nitro-6-phenyl-1,2,3,4-tetrahydropyrrolo[1,2-a]pyrimidin-7-yl)-3-oxopropanoate] | 30.8 ± 5.17% | – | –
Cc1ccc(-c2c(C(C#N)C(N)=O)c([N+](=O)[O-])c3n2CC(C)(C)CN3)cc1 (stereo not shown) [Compound 4h, 2-cyano-2-(3,3-dimethyl-8-nitro-6-(p-tolyl)-1,2,3,4-tetrahydropyrrolo[1,2-a]pyrimidin-7-yl)acetamide] | 45.8 ± 2.81% | – | IC50 [1]: 67.6 ± 7.54 µM
N#CC(C(N)=O)c1c([N+](=O)[O-])c2n(c1-c1ccc(Cl)cc1)CCCN2 (stereo not shown) [Compound 4i, 2-(6-(4-chlorophenyl)-8-nitro-1,2,3,4-tetrahydropyrrolo[1,2-a]pyrimidin-7-yl)-2-cyanoacetamide] | 33.9 ± 6.87% | – | –

Molecule | inhibition at 50 µM [1, 4] | inhibition at 50 µM [2, 4] | also measured
COC(=O)C(C(N)=O)c1c([N+](=O)[O-])c2n(c1-c1ccc(C)cc1)CC(C)(C)CN2 (stereo not shown) [Compound 4j, Methyl3-amino-2-(3,3-dimethyl-8-nitro-6-(p-tolyl)-1,2,3,4-tetrahydropyrrolo[1,2-a]pyrimidin-7-yl)-3-oxopropanoate] | 14.9 ± 2.45% | 28.2 ± 3.83% | –
COC(=O)C(C(N)=O)c1c([N+](=O)[O-])c2n(c1-c1ccc(Cl)cc1)CC(C)(C)CN2 (stereo not shown) [Compound 4k, Methyl3-amino-2-(6-(4-chlorophenyl)-3,3-dimethyl-8-nitro-1,2,3,4-tetrahydropyrrolo[1,2-a]pyrimidin-7-yl)-3-oxopropanoate] | 13.3 ± 4.88% | 13.7 ± 2.13% | –
CCOC(=O)C(C(N)=O)c1c([N+](=O)[O-])c2n(c1-c1ccc(C)cc1)CC(C)(C)CN2 (stereo not shown) [Compound 4l, Ethyl3-amino-2-(3,3-dimethyl-8-nitro-6-(p-tolyl)-1,2,3,4-tetrahydropyrrolo[1,2-a]pyrimidin-7-yl)-3-oxopropanoate] | 14.2 ± 2.12% | – | –
CCOC(=O)C(C(N)=O)c1c([N+](=O)[O-])c(NCc2ccco2)n(Cc2ccco2)c1-c1ccc(Cl)cc1 (stereo not shown) [Compound 4n, Ethyl3-amino-2-(2-(4-chlorophenyl)-1-(furan-2-ylmethyl)-5-((furan-2-ylmethyl)amino)-4-nitro-1H-pyrrol-3-yl)-3-oxopropanoate] | – | 21.9 ± 1.18% | –
Cc1ccc(-c2c(C(C#N)C(N)=O)c([N+](=O)[O-])c(NCc3ccco3)n2Cc2ccco2)cc1 (stereo not shown) [Compound 4o, 2-cyano-2-(1-(furan-2-ylmethyl)-5-((furan-2-ylmethyl)amino)-4-nitro-2-(p-tolyl)-1H-pyrrol-3-yl)acetamide] | 19.8 ± 4.18% | 46.1 ± 6.43% | IC50 [2]: 69.2 ± 5.09 µM
N#CC(C(N)=O)c1c([N+](=O)[O-])c(NCc2ccccc2)n(Cc2ccccc2)c1-c1ccc(Cl)cc1 (stereo not shown) [Compound 4p, 2-(1-benzyl-5-(benzylamino)-2-(4-chlorophenyl)-4-nitro-1H-pyrrol-3-yl)-2-cyanoacetamide] | 18.7 ± 3.52% | – | –
CCOC(=O)C(C(N)=O)c1c([N+](=O)[O-])c(NCc2ccco2)n(Cc2ccco2)c1-c1ccc(C)cc1 (stereo not shown) [Compound 4q, Ethyl3-amino-2-(1-(furan-2-ylmethyl)-5-((furan-2-ylmethyl)amino)-4-nitro-2-(p-tolyl)-1H-pyrrol-3-yl)-3-oxopropanoate] | 17.8 ± 2.44% | 68.4 ± 6.35% | IC50 [2]: 18.6 ± 2.71 µM
N#CC(C(N)=O)c1c([N+](=O)[O-])c(NCc2ccco2)n(Cc2ccco2)c1-c1ccc(Cl)cc1 (stereo not shown) [Compound 4s, 2-(2-(4-chlorophenyl)-1-(furan-2-ylmethyl)-5-((furan-2-ylmethyl)amino)-4-nitro-1H-pyrrol-3-yl)-2-cyanoacetamide] | – | 29.5 ± 3.87% | –
CCOC(=O)C(C(N)=O)c1c([N+](=O)[O-])c(NCc2ccccc2)n(Cc2ccccc2)c1-c1ccc(C)cc1 (stereo not shown) [Compound 4t, Ethyl 3-amino-2-(1-benzyl-5-(benzylamino)-4-nitro-2-(p-tolyl)-1H-pyrrol-3-yl)-3-oxopropanoate] | – | 26.5 ± 5.12% | –
N#CC(C(N)=O)c1c(-c2ccc(Cl)cc2)[nH]c(N)c1[N+](=O)[O-] (stereo not shown) [Compound 4w, 2-(5-amino-2-(4-chlorophenyl)-4-nitro-1H-pyrrol-3-yl)-2-cyanoacetamide] | 48.6 ± 4.53% | 33.5 ± 3.4% | –
COc1ccc(-c2[nH]c(N)c([N+](=O)[O-])c2C(C#N)C(N)=O)cc1 (stereo not shown) [Compound 4x, 2-(5-amino-2-(4-methoxyphenyl)-4-nitro-1H-pyrrol-3-yl)-2-cyanoacetamide] | 47.7 ± 3.91% | 19.4 ± 3.91% | –
N#CC(C(N)=O)c1c(-c2ccc3ccccc3c2)[nH]c(N)c1[N+](=O)[O-] (stereo not shown) [Compound 4y, 2-(5-amino-2-(naphthalen-2-yl)-4-nitro-1H-pyrrol-3-yl)-2-cyanoacetamide] | – | 19.1 ± 4.3% | –
CSc1c([N+](=O)[O-])c(C(C#N)C(N)=O)c(-c2ccc(C)cc2)n1-c1ccc(C)c(C)c1 (stereo not shown) [Compound 4z, 2-cyano-2-(1-(3,4-dimethylphenyl)-5-(methylthio)-4-nitro-2-(p-tolyl)-1H-pyrrol-3-yl)acetamide] | 26.7 ± 5.14% | – | –
COc1cccc2cc(C(=O)/C=C/c3ccc[n+](Cc4ccccc4Br)c3)oc12 [D] | – | – | IC50 ([3]; Fig. 2 traditional AChE inhibitors, read-out: IC50 against AChE): 0.027 µM
Cc1nc2ccccc2c2cc[nH]c12 [G] | – | – | IC50 ([3]; Fig. 3, target per b17 AChE, read-out: IC50): 4.9 ± 0.9 µM
Ethyl3-amino-2-(5-(methylthio)-4-nitro-1-phenyl-2-(p-tolyl)-1H-pyrrol-3-yl)-3-oxopropanoate [Compound 4ak] | – | – | AChE % inhibition at 50 µM [1, 4]: 20.79 ± 2.62%; BChE % inhibition at 50 µM [2, 4]: 25.56 ± 6.89%
